Measured values as given in US8501792B2, “Treating cancer with desthiazolyl ritonavir” (priority 2008, dated 2013).
Where two headings read alike, the source gives them in different places.

Key:
MCF7-her2 line = test: MTT proliferation assay, MCF7-her2 line; type: cell-based; details: MCF7-her2 line over-expressing her2; MTT after 48 h
MCF7 (ER+) = test: MTT proliferation assay, MCF7; type: cell-based; details: Homo sapiens
Experimental: Cells (n=2000/well) were seeded in 96 well plates with drug or vehicle (DMSO) on D1 and after 48 h the cell number was determined by MTT assay.

[1] = tested on: MCF7 breast cancer cell line; test: Annexin V-FITC/PI apoptosis flow cytometry, MCF7; type: cell-based; details: for early apoptotic cells: preliminary flow cytometry apoptosis studies; for UR % Late Apoptosis / LR % Early Apoptosis: 48 hours; for fraction of apoptotic cells (early, lower right quadrant): at the ritonavir IC50 (30 μM), FIG. 2
Experimental: Induction of apoptosis can be determined using the Annexin V-FITC/PI apoptosis detection kit (Oncagene, Boston, Mass.). For example, after plating at 5×10^5 in a 100-mm plate, cancer cells can be grown for 48 hours in complete medium in presence of a drug, including a compound or formula 1, and a control, such as vehicle (DMSO). The culture and drug exposure conditions for the apoptosis assays can be done across a range of 5 to 60 μmol/L drug. Cells can be harvested by trypsin treatment, washed with complete medium to neutralize the trypsin, and stained with PI and Annexin V-FITC. The events can then be analyzed using FACScan analysis and CellQuest software (Becton Dickinson). See Example 2.
Induction of apoptosis was studied in a MCF7 breast cancer cell line. Apoptotic cells were detected using an Annexin V-FITC/PI apoptosis detection kit (Oncagene, Boston, Mass.). After plating at 5×10^5 in a 100-mm plate, the cells were grown for 48 hours in complete medium in presence of M1, ritonavir, or vehicle (DMSO). The culture and drug exposure conditions for the apoptosis assays were done across a range of 5 to 60 μmol/L M1 and ritonavir. Cells were harvested by trypsin treatment, washed with complete medium to neutralize the trypsin, and stained with PI and Annexin V-FITC. A total of 1×10^4 events were analyzed per assay by FACScan analysis using CellQuest software (Becton Dickinson). Replicate assays were done to confirm the results.

T47D cell line = test: Induction of reactive oxygen species, flow cytometry; type: cell-based; details: 30 μM, 24 hours, FIG. 3
Experimental: Production of ROS can be analyzed using flow cytometry. For example, induction of ROS, including peroxide and superoxide, can be studied in cancer cell line. Cells can be seeded in 6 well plates (˜80,000 cells/well) using the appropriate medium, and exposed to a drug for 24 hours. Subsequently, the medium can be removed from the wells and the cells can then be exposed to DHE (2 μM in PBS) or Carboxy-H2-DCFDA (10 μM in PBS) for 30 minutes. Cells can then be trypsinized, washed two times with PBS and analyzed by flow cytometry. Additional cells can be exposed to H2O2 (250 μM) for 2 hours as a positive control for ROS production. See Example 3.
Induction of Reactive Oxygen Species (ROS), including peroxide and superoxide, were studied in the T47D cell line. Cells were seeded in 6 well plates (˜80,000 cells/well) using the appropriate medium, (DMEM with 10% FBS, 1% L-Glu, 1% Sodium Piruvate, and 1% Pen-strep) and exposed to ritonavir (30 μM) and M1 (30 μM) for 24 hours. Subsequently, the medium was removed from the wells and the cells were exposed to DHE (2 μM in PBS) or Carboxy-H2-DCFDA (10 μM in PBS) for 30 minutes. Cells were then trypsinized, washed two times with PBS and analyzed by flow cytometry. Additional cells were exposed to H2O2 (250 μM) for 2 hours as a positive control for ROS production.

SKBR3 = test: Western blot protein depletion, SKBR3 (Example 4); type: cell-based
Experimental: Breast cancer cell lines MDA-MB-231, T47D and SKBR3 were used to study depletion of Hsp90 by M1 and ritonavir. Cells were incubated for 48 hours with 1) ritonavir (R) at its IC50 (20 μM for T47D and 40 μM for MDA-MB-231); 2) M1 at ritonavir's IC50; or DMSO (control). Cell extracts were made according to the method of Srirangam et al., Clin Cancer Res. 2006 Mar. 15; 12(6):1883-96. Briefly, nearly confluent cell monolayers were treated with drug or vehicle (DMSO) for 24 or 48 h. Cells were washed with PBS on ice and scraped in a RIPA buffer containing protease inhibitors including MG-132 and phosphatase inhibitors. The cell lysate protein content was determined by μBCA and equal amounts of protein were loaded per lane. Gel electrophoresis by SDS PAGE was performed with equal protein loading per lane (usually 30 μg) and the separated proteins were transferred to 0.45 μm nitrocellulose filters. The transfer was verified by Ponceau stain of the nitrocellulose filters. The filters were probed by chemiluminescent blotting and then exposed to X-ray film. The signal from the protein of interest was normalized to the GAPDH signal. Student's t-test was used to determine the significance of differences.

HER2 = test: Surface HER2 flow cytometry in SKBR3 cells; type: cell-based
Experimental: SKBR3 cells were plated at a density of 80,000 cells/well in 6-well plates. After 18 hours, cells were exposed to ritonavir (33 μM), Desthiazolyl Ritonavir (M1) (33 μM), or DMSO. After 24 hours, cells were trypsinized, spun down, and resuspended in 50 μL of Staining Buffer (PBS 1% BSA). Cells were then incubated with anti-HER2 Ab FITC (Chemicon International; MAB4083F) for 30 minutes (on-ice and in the dark). Control cells were incubated with mouse IgG1 FITC (Biolytex). Cells were washed two times with Washing Buffer (PBS 0.1% Tween-20), resuspended in 100 μL of PBS, and acquired using FACSCalibur flow cytometer.

HIV = details: MT-4 cell based assay; Denissen et al. 1997; cited from earlier work
[2] = Table 1, below the IC50 for both drugs, 45 μM
[3] = Table 3, at the ritonavir IC50, 30 μM
[4] = Table 4, above the IC50 for both drugs, 45 μM

| SMILES | IC50 (MCF7-her2 line) [µM] | early apoptotic cells ([1]; 45 μM) [%] | UR % Late Apoptosis ([1]; Table 1, 45 μM) [%] | LR % Early Apoptosis [1, 2] [%] | LR % Early Apoptosis ([1]; Table 2, at the M1 IC50, 15 μM) [%] | UR % Late Apoptosis ([1]; Table 2, at the M1 IC50, 15 μM) [%] | LR % Early Apoptosis [1, 3] [%] | UR % Late Apoptosis [1, 3] [%] | LR % Early Apoptosis [1, 4] [%] | UR % Late Apoptosis [1, 4] [%] | fraction of apoptotic cells (early, lower right quadrant) [1] [%] | ROS production (T47D cell line) | G1/S regulatory protein Cyclin D1 (SKBR3) | reducing Hsp90 levels (SKBR3) | further results |
| --- | --- | --- | --- | --- | --- | --- | --- | --- | --- | --- | --- | --- | --- | --- | --- |
| CC(C)c1nc(CN(C)C(=O)NC(C(=O)NC(Cc2ccccc2)CC(O)C(N)Cc2ccccc2)C(C)C)cs1 (centres unmarked) [M1, desthiazolyl ritonavir] | 25 | 28 | 34.74 | 27.46 | 9.42 | 10.73 | 39.74 | 20.00 | 31.95 | 21.31 | 32 | induces ROS production | reduced | neither drug reduced | IC50 (MCF7 (ER+); MCF7, Example 6, MTT after 48 h, read-out: IC50, proliferation): 15 µM; reducing total Akt, phospho-Akt, GSK3beta, c-src, and survivin (SKBR3; versus ritonavir, P<0.05): more potent; anti-HER2 functionality / expression of surface HER2 (HER2; SKBR3, 33 μM, 24 hours, FIG. 7): exhibited anti-HER2 functionality; reduction of the expression of surface HER2 (HER2; SKBR3 line, P<0.05): up to 80%; inhibition of HIV replication (HIV): does not inhibit HIV replication |
| CC(C)c1nc(CN(C)C(=O)N[C@H](C(=O)N[C@@H](Cc2ccccc2)C[C@H](O)[C@H](Cc2ccccc2)NC(=O)OCc2cncs2)C(C)C)cs1 [ritonavir] | 25 | 14 | 23.0 | 14.12 | 13.83 | 11.16 | 15.11 | 7.95 | 17.10 | 7.30 | 17 | does not | only M1 reduced | neither drug reduced | IC50 (MCF7 (ER+); MCF7, 48 h, read-out: IC50, proliferation): 28 µM; IC50 (MCF7 (ER+); MCF7, as quoted in Example 2, read-out: IC50): 30 µM |
